Laboratory results as given in publication PMC9606955, “In Vitro Activity of Essential Oils Distilled from Colombian Plants against Candida auris and Other Candida Species with Different Antifungal Susceptibility Profiles” (Molecules, 2022).
Converted amounts (≈) assume the structure as drawn.

Assays:
C. krusei ATCC 6258 = assay: MIC, CLSI M27 broth microdilution; type: cell-based, Candida krusei; conditions: C. krusei ATCC 6258, antifungal drugs
Text: (§1) The fungal strains used in this study were C. albicans ATCC 10231, C. albicans ATCC 64550, C. parapsilosis ATCC 22019, C. tropicalis ATCC 750, C. tropicalis ATCC 200956 (resistant to azoles and AMB), C. glabrata LMDM 34 (resistant to echinocandins), C. metapsilosis MUM 15.12, C. orthopsilosis MUM 17.13, C. lusitaniae MUM 17.08, C. krusei ATCC 6258 (Issatchenkia orientalis ATCC 6258), and C. auris CDC B11903. Additionally, nine clinical isolates were included: C. parapsilosis Synlab 406 (FLC-resistant) and eight C. auris isolates identified by MALDI-TOF MS (Bruker Daltonics, Bremen, Germany) according to Zhao et al.. These yeasts were cultured on Sabouraud Dextrose Agar (SDA; Sigma-Aldrich, St. Louis, MO, USA) for 24 h at 35 °C.
(§2) Antifungal susceptibility testing was performed according to Clinical and Laboratory Standards Institute M27, 4th Edition (CLSI standard M27, 4th Edition). Some modifications were applied for evaluation of the antifungal activity of EOs and terpenes. Initially, a screening was carried out to determine the antifungal activity of the EOs and of commercial terpenes. Stock concentrations of EOs and terpenes were prepared at 512 µg/mL and an inoculum of 2.5 × 10^3 CFU/mL of each yeast was prepared in RPMI 1640-MOPS (Sigma- Aldrich St. Louis, MO, USA). Thereafter, 100 µL of each stock solution of EOs or terpenes was dispensed in 96-well microdilution plates (Corning®, Costar®, NY, USA) and 100 µL of each yeast inoculum was added. […] Microdilution plates were incubated at 35 °C and, after 24 h, the presence or absence of growth was visually checked using a manual mirror viewer and then compared with the amount of growth in the control (no EO or terpene). Compounds able to inhibit yeast growth were tested to determine the minimal inhibitory concentration (MIC) as follows: 100 µL of 10 two-fold dilutions of the EOs or commercial terpenes was dispensed in 96-well microplates and the yeast inoculum was added. Final concentrations of the EOs or terpenes ranged from 0.5 µg/mL to 256 µg/mL. Microdilution plates were incubated at 35 °C for 24 h. MICs were visually determined at the lowest concentration that produced visual inhibition compared to the growth control. The assays were performed at least three times in duplicate on different days. The results were expressed as geometric means (GM) and ranges. As an antifungal susceptibility testing control, the activity of ITC and AMB against the reference strains C. krusei ATCC 6258 and C. parapsilosis ATCC 22019 was evaluated in all experiments following the CLSI standard M27, 4th Edition. It was mandatory that the MIC values remained in the accepted range.

[1] = test system: C. tropicalis ATCC 200956; assay: MIC, CLSI M27 broth microdilution; type: cell-based, Candida tropicalis; conditions: C. tropicalis ATCC 200956, antifungal drugs
Text: as §1, §2

C. tropicalis ATCC 750 = assay: MIC, CLSI M27 broth microdilution; type: cell-based, Candida tropicalis; conditions: antifungal drugs
Text: as §1, §2

[2] = test system: C. metapsilosis MUM 15.12; assay: MIC, CLSI M27 broth microdilution; type: cell-based, Candida metapsilosis; conditions: C. metapsilosis MUM 15.12, antifungal drugs
Text: as §1, §2

C. lusitaniae MUM 17.08 = assay: MIC, CLSI M27 broth microdilution; type: cell-based, Candida lusitaniae; conditions: C. lusitaniae MUM 17.08, antifungal drugs
Text: as §1, §2

C. auris CDC B11903 = assay: MIC, CLSI M27 broth microdilution; type: cell-based, Candida auris; conditions: C. auris CDCB11903, antifungal drugs
Text: as §1, §2

C. auris Ca 17 = assay: MIC, CLSI M27 broth microdilution; type: cell-based, Candida auris; conditions: C. auris Ca 17, antifungal drugs
Text: as §1, §2

C. auris Ca 1 = assay: MIC, CLSI M27 broth microdilution; type: cell-based, Candida auris; conditions: C. auris Ca 1, antifungal drugs
Text: as §1, §2

C. auris Ca 46 = assay: MIC, CLSI M27 broth microdilution; type: cell-based, Candida auris; conditions: C. auris Ca 46, antifungal drugs
Text: as §1, §2

C. auris Ca 32 = assay: MIC, CLSI M27 broth microdilution; type: cell-based, Candida auris; conditions: C. auris Ca 32, antifungal drugs
Text: as §1, §2

C. auris Ca 10 = assay: MIC, CLSI M27 broth microdilution; type: cell-based, Candida auris; conditions: antifungal drugs
Text: as §1, §2

C. auris Ca 9 = assay: MIC, CLSI M27 broth microdilution; type: cell-based, Candida auris; conditions: C. auris Ca 9, antifungal drugs
Text: as §1, §2

C. auris Ca 45 = assay: MIC, CLSI M27 broth microdilution; type: cell-based, Candida auris; conditions: C. auris Ca 45, antifungal drugs
Text: as §1, §2

C. auris Ca 41 = assay: MIC, CLSI M27 broth microdilution; type: cell-based, Candida auris; conditions: C. auris Ca 41, antifungal drugs
Text: as §1, §2

[3] = test system: C. parapsilosis ATCC 22019; assay: MIC, CLSI M27 broth microdilution; type: cell-based, Candida parapsilosis; conditions: antifungal drugs
Text: as §1, §2

[4] = test system: C. parapsilosis Synlab 406; assay: MIC, CLSI M27 broth microdilution; type: cell-based, Candida parapsilosis; conditions: C. parapsilosis Synlab 406, antifungal drugs
Text: as §1, §2

C. albicans ATCC 10231 = assay: MIC, CLSI M27 broth microdilution; type: cell-based, Candida albicans; conditions: antifungal drugs
Text: as §1, §2

C. albicans ATCC 64550 = assay: MIC, CLSI M27 broth microdilution; type: cell-based, Candida albicans; conditions: antifungal drugs
Text: as §1, §2

C. glabrata LMDM 34 = assay: MIC, CLSI M27 broth microdilution; type: cell-based, Candida glabrata; conditions: antifungal drugs
Text: as §1, §2

[5] = test system: C. orthopsilosis MUM 17.13; assay: MIC, CLSI M27 broth microdilution; type: cell-based, Candida orthopsilosis; conditions: C. orthopsilosis MUM 17.13, antifungal drugs
Text: as §1, §2

C. auris = assay: Screening of antifungal activity at 256 µg/mL against C. auris; type: cell-based, Candida auris; conditions: screening at 256 µg/mL, clinical isolates of C. auris
Text: as §1
Antifungal susceptibility testing was performed according to Clinical and Laboratory Standards Institute M27, 4th Edition (CLSI standard M27, 4th Edition). Some modifications were applied for evaluation of the antifungal activity of EOs and terpenes. Initially, a screening was carried out to determine the antifungal activity of the EOs and of commercial terpenes. Stock concentrations of EOs and terpenes were prepared at 512 µg/mL and an inoculum of 2.5 × 10^3 CFU/mL of each yeast was prepared in RPMI 1640-MOPS (Sigma- Aldrich St. Louis, MO, USA). Thereafter, 100 µL of each stock solution of EOs or terpenes was dispensed in 96-well microdilution plates (Corning®, Costar®, NY, USA) and 100 µL of each yeast inoculum was added. […] MICs were visually determined at the lowest concentration that produced visual inhibition compared to the growth control. […] The results were expressed as geometric means (GM) and ranges. As an antifungal susceptibility testing control, the activity of ITC and AMB against the reference strains C. krusei ATCC 6258 and C. parapsilosis ATCC 22019 was evaluated in all experiments following the CLSI standard M27, 4th Edition. […]

## CCC(C)n1ncn(-c2ccc(N3CCN(c4ccc(OCC5COC(Cn6cncn6)(c6ccc(Cl)cc6Cl)O5)cc4)CC3)cc2)c1=O (centres unmarked) [ITC, itraconazole]
C. krusei ATCC 6258
  MIC Range: 0.12 to 0.50 µg/mL
C. krusei ATCC 6258; Pichia kudriavzevii, ATCC6258, geometric mean, read-out: MIC GM
  MIC: 0.28 µg/mL (≈ 0.397 µM)
[1]
  MIC Range: >16 µg/mL
[1]; Candida tropicalis, ATCC200956, geometric mean, read-out: MIC GM
  MIC: > 16 µg/mL
C. tropicalis ATCC 750; Candida tropicalis, ATCC750, geometric mean
  MIC: 0.12 µg/mL (≈ 0.17 µM)
C. tropicalis ATCC 750
  MIC Range: 0.06 to 0.25 µg/mL
[2]
  MIC Range: 0.06 to 0.12 µg/mL
[2]; Lodderomyces metapsilosis, MUM15.12, geometric mean, read-out: MIC GM
  MIC: 0.09 µg/mL (≈ 0.128 µM)
C. lusitaniae MUM 17.08
  MIC Range: 0.03 to 0.06 µg/mL
C. lusitaniae MUM 17.08; Clavispora lusitaniae, MUM17.08, geometric mean, read-out: MIC GM
  MIC: 0.04 µg/mL (≈ 0.0567 µM)
C. auris CDC B11903
  MIC Range: 0.06 to 0.12 µg/mL
C. auris CDC B11903; Candidozyma auris, geometric mean, read-out: MIC GM
  MIC: 0.04 µg/mL (≈ 0.0567 µM)
C. auris Ca 17
  MIC Range: 0.12 to 0.5 µg/mL
C. auris Ca 17; Candidozyma auris, CA17, geometric mean, read-out: MIC GM
  MIC: 0.25 µg/mL (≈ 0.354 µM)
C. auris Ca 1
  MIC Range: 0.03 to 0.12 µg/mL
C. auris Ca 1; Candidozyma auris, CA1, geometric mean, read-out: MIC GM
  MIC: 0.06 µg/mL (≈ 0.085 µM)
C. auris Ca 46
  MIC Range: 0.06 to 0.12 µg/mL
C. auris Ca 46; Candidozyma auris, CA46, geometric mean, read-out: MIC GM
  MIC: 0.04 µg/mL (≈ 0.0567 µM)
C. auris Ca 32
  MIC Range: 0.25 to 0.50 µg/mL
C. auris Ca 32; Candidozyma auris, CA32, geometric mean, read-out: MIC GM
  MIC: 0.35 µg/mL (≈ 0.496 µM)
C. auris Ca 10; Candidozyma auris, CA10, geometric mean
  MIC: 0.09 µg/mL (≈ 0.128 µM)
C. auris Ca 10
  MIC Range: 0.06 to 0.12 µg/mL
C. auris Ca 9
  MIC Range: 0.03 to 0.12 µg/mL
C. auris Ca 9; Candidozyma auris, CA9, geometric mean, read-out: MIC GM
  MIC: 0.06 µg/mL (≈ 0.085 µM)
C. auris Ca 45
  MIC Range: 0.06 to 0.12 µg/mL
C. auris Ca 45; Candidozyma auris, CA45, geometric mean, read-out: MIC GM
  MIC: 0.04 µg/mL (≈ 0.0567 µM)
C. auris Ca 41
  MIC Range: 0.03 to 0.12 µg/mL
C. auris Ca 41; Candidozyma auris, CA41, geometric mean, read-out: MIC GM
  MIC: 0.06 µg/mL (≈ 0.085 µM)
[3]; Lodderomyces parapsilosis, ATCC22019, geometric mean
  MIC: 0.35 µg/mL (≈ 0.496 µM)
[3]
  MIC Range: 0.25 to 0.50 µg/mL
[4]
  MIC Range: 0.5 to 1 µg/mL
[4]; Lodderomyces parapsilosis, SYNLAB406, geometric mean, read-out: MIC GM
  MIC: 0.7 µg/mL (≈ 0.992 µM)
C. albicans ATCC 10231; Candida albicans, ATCC10231, geometric mean
  MIC: 0.06 µg/mL (≈ 0.085 µM)
C. albicans ATCC 10231
  MIC Range: 0.03 to 0.125 µg/mL
C. albicans ATCC 64550; Candida albicans, ATCC64550, geometric mean
  MIC: 0.7 µg/mL (≈ 0.992 µM)
C. albicans ATCC 64550
  MIC Range: 0.5 to 1 µg/mL
C. glabrata LMDM 34; Nakaseomyces glabratus, LMDM34, geometric mean
  MIC: 1 µg/mL (≈ 1.42 µM)
C. glabrata LMDM 34
  MIC Range: 1 µg/mL (≈ 1.42 µM)
[5]
  MIC Range: 0.12 µg/mL (≈ 0.17 µM)
[5]; Lodderomyces orthopsilosis, MUM17.13, geometric mean, read-out: MIC GM
  MIC: 0.12 µg/mL (≈ 0.17 µM)

## CC1=CC(=O)[C@@H]2C[C@H]1C2(C)C [verbenone]
C. auris
  antifungal activity in screening against C. auris: active against only some of the clinical isolates of C. auris
